The test system of test [1] is Peripheral Blood Mononuclear Cells (PBMCs), TNFα release. As to the kind of experiment: LPS-stimulated PBMC TNFα release assay. The format is cell-based. The following applies: human PBMC, LPS (10 ng/ml), 18 h, compound 1 h before LPS; read-out: LPS-stimulated PBMC TNFα release inhibition. The protocol:
LPS-Stimulated PBMC TNFα Release Assay
Peripheral Blood Mononuclear Cells (PBMCs) were isolated from healthy human volunteer blood using a standard density gradient centrifugation technique. Citrated blood was placed onto Histopaque™ and centrifuged. The PBMCs were removed from the density gradient interface and washed in phosphate buffered saline (PBS). The PBMCs were suspended in RPMI 1640 medium (without serum), dispensed into a 96-well plate and incubated at 37° C. for 3 h in a humidified incubator. After incubation, the medium was replaced (with medium containing 1% foetal bovine serum) and the plate incubated at 37° C., for 1 h, in the presence of test compound or the appropriate vehicle. LPS (10 ng/ml), or an appropriate vehicle control, was then added to the cells and the plate returned to the incubator for 18 h. Cell-free supernatants were removed and assayed for TNFα levels using MSD plates on the Sector Imager 6000 (MesoScale).
A dose response curve to each test compound was performed and the effect of compound in each experiment was expressed as a percentage inhibition of the control TNFα release. Dose response curves were plotted and compound potency (IC50) was determined. Compounds were tested in at least three separate experiments.

A further test concerns the target T1, p38 alpha (Homo sapiens, UniProt Q16539).
T1 construct: purchased Invitrogen PV3304
As to the kind of experiment: P38 alpha enzyme inhibition assay (Alphascreen kinase activity assay). The format is biochemical. The following applies: 100 pM p38 alpha, 2 hours preincubation at 25° C., 250 μM ATP, ATF-2 fusion protein; read-out: p38α inhibition. An outline of the steps: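 Phosphorylation of ATF-2 fusion protein (0.3 μg/ml) read by AlphaScreen with anti-phospho-ATF2 antibody after 1 h kinase reaction at 25 °C, initiated by 250 μM ATP. Compounds first incubated 2 h at 25 °C with 100 pM p38 alpha in pH 7.5 HEPES buffer, 1% DMSO. IC50 derived from concentration-response data.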

T1 sequence (Q16539 whole entry): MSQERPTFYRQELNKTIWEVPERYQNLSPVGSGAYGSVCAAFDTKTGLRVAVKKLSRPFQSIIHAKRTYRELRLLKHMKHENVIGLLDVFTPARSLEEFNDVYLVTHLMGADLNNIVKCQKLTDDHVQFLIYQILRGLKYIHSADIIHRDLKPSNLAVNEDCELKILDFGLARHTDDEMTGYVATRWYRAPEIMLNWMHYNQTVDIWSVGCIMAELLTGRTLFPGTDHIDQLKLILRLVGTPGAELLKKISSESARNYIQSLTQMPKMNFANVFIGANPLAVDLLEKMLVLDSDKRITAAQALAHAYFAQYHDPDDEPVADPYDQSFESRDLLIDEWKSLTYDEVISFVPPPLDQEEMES

Consider `CCN(C)CCNC(=O)c1nc(NC(=O)N[C@H]2CC[C@@H](Oc3ccc4nnc(N(CC)CC)n4c3)c3ccccc32)cc(C(C)(C)C)n1` [Example 11, 4-(tert-Butyl)-6-(3-((1S,4R)-4-((3-(diethylamino)-[1,2,4]triazolo[4,3-a]pyridin-6-yl)oxy)-1,2,3,4-tetrahydronaphthalen-1-yl)ureido)-N-(2-(ethyl(methyl)amino)ethyl)pyrimidine-2-carboxamide], for which the IC50 in test [1] is 1 to 5 nM; on p38 alpha, under 1 nM.
Take `COC(C)(C)c1nnc2ccc(O[C@@H]3CC[C@H](NC(=O)Nc4cc(C(C)(C)C)nc(C(=O)NCCN5CCCOCC5)n4)c4ccccc43)cn12` [Example 12, N-(2-(1,4-Oxazepan-4-yl)ethyl)-4-(tert-butyl)-6-(3-((1S,4R)-4-((3-(2-methoxypropan-2-yl)-[1,2,4]triazolo[4,3-a]pyridin-6-yl)oxy)-1,2,3,4-tetrahydronaphthalen-1-yl)ureido)pyrimidine-2-carboxamide]: the figures for the IC50 (in test [1]; at p38 alpha) were 1 to 5 nM and 1 to 10 nM, respectively.
On to `COC(C)(C)c1nnc2ccc(O[C@@H]3CC[C@H](NC(=O)Nc4cc(C(C)(C)C)nc(CO)n4)c4ccccc43)cn12` [Example 13, 1-(6-(tert-Butyl)-2-(hydroxymethyl)pyrimidin-4-yl)-3-((1S,4R)-4-((3-(2-methoxypropan-2-yl)-[1,2,4]triazolo[4,3-a]pyridine-6-yl)oxy)-1,2,3,4-tetrahydronaphthalene-1-yl)urea], for which the IC50 was 1 to 5 nM in test [1] and under 1 nM at p38 alpha.
The matching figures for `CN1CCC[C@@]1(C)c1nnc2ccc(O[C@@H]3CC[C@H](NC(=O)Nc4cc(C(C)(C)C)ncn4)c4ccccc43)cn12` [Example 14, 1-(6-(tert-Butyl)pyrimidin-4-yl)-3-((1S,4R)-4-((3-((S)-1,2-dimethylpyrrolidin-2-yl)-[1,2,4]triazolo[4,3-a]pyridin-6-yl)oxy)-1,2,3,4-tetrahydronaphthalen-1-yl)urea]: under 1 nM and under 1 nM.
The matching figures for `C[C@H]1CCCCN1c1nnc2ccc(O[C@@H]3CC[C@H](NC(=O)Nc4cc(C(C)(C)C)nc(CN(C)C)n4)c4ccccc43)cn12` [Example 15, 1-(6-(tert-Butyl)-2-((dimethylamino)methyl)pyrimidin-4-yl)-3-((1S,4R)-4-((3-((S)-2-methylpiperidin-1-yl)-[1,2,4]triazolo[4,3-a]pyridin-6-yl)oxy)-1,2,3,4-tetrahydronaphthalen-1-yl)urea]: over 5 nM and under 1 nM.
Turning to `CC(C)(C)c1cc(NC(=O)N[C@H]2CC[C@@H](Oc3ccc4nnc(C(C)(C)C)n4c3)c3ccccc32)nc(C(=O)NCCO)n1` [Example 16, 4-(tert-Butyl)-6-(3-((1S,4R)-4-((3-(tert-butyl)-[1,2,4]triazolo[4,3-a]pyridin-6-yl)oxy)-1,2,3,4-tetrahydronaphthalen-1-yl)ureido)-N-(2-hydroxyethyl)pyrimidine-2-carboxamide], the IC50 (in test [1]; on p38 alpha) was under 1 nM in each case.
With `C[C@@H]1CCC[C@H](C)N1c1nnc2ccc(O[C@@H]3CC[C@H](NC(=O)Nc4cc(C(C)(C)C)nc(C(=O)NCCN5CCOCC5)n4)c4ccccc43)cn12` [Example 18, 4-(tert-Butyl)-6-(3-((1S,4R)-4-((3-((2R,6S)-2,6-dimethylpiperidin-1-yl)-[1,2,4]triazolo[4,3-a]pyridin-6-yl)oxy)-1,2,3,4-tetrahydronaphthalen-1-yl)ureido)-N-(2-morpholinoethyl)pyrimidine-2-carboxamide], the IC50 in test [1] is 1 to 5 nM; at p38 alpha, under 1 nM.
The matching figures for `C[C@@H]1CCC[C@H](C)N1c1nnc2ccc(O[C@@H]3CC[C@H](NC(=O)Nc4cc(C(C)(C)C)nc(C(=O)NCCO)n4)c4ccccc43)cn12` [Example 19, 4-(tert-Butyl)-6-(3-((1S,4R)-4-((3-((2R,6S)-2,6-dimethylpiperidin-1-yl)-[1,2,4]triazolo[4,3-a]pyridin-6-yl)oxy)-1,2,3,4-tetrahydronaphthalen-1-yl)ureido)-N-(2-hydroxyethyl)pyrimidine-2-carboxamide]: under 1 nM and under 1 nM.
As to `C[C@@H]1CCC[C@H](C)N1c1nnc2ccc(O[C@@H]3CC[C@H](NC(=O)Nc4cc(C(C)(C)C)nc(C(=O)NCCN(C)C)n4)c4ccccc43)cn12` [Example 20, 4-(tert-Butyl)-N-(2-(dimethylamino)ethyl)-6-(3-((1S,4R)-4-((3-((2R,6S)-2,6-dimethylpiperidin-1-yl)-[1,2,4]triazolo[4,3-a]pyridin-6-yl)oxy)-1,2,3,4-tetrahydronaphthalen-1-yl)ureido)pyrimidine-2-carboxamide], the IC50 in test [1] is 1 to 5 nM; at p38 alpha, under 1 nM.
Taken in the same sequence, the figures for `CC(C)(C)c1cc(NC(=O)N[C@H]2CC[C@@H](Oc3ccc4nnc(C(C)(C)C)n4c3)c3ccccc32)nc(CN2CCOCC2)n1` [Example 21, 1-(6-(tert-Butyl)-2-(morpholinomethyl)pyrimidin-4-yl)-3-((1S,4R)-4-((3-(tert-butyl)-[1,2,4]triazolo[4,3-a]pyridin-6-yl)oxy)-1,2,3,4-tetrahydronaphthalen-1-yl)urea] were over 5 nM and 1 to 10 nM.
Regarding `CN1CCN(C(C)(C)c2nnc3ccc(O[C@@H]4CC[C@H](NC(=O)Nc5cc(C(C)(C)C)nc(CO)n5)c5ccccc54)cn23)CC1` [Example 23, 1-(6-(tert-Butyl)-2-(hydroxymethyl)pyrimidin-4-yl)-3-((1S,4R)-4-((3-(2-(4-methylpiperazin-1-yl)propan-2-yl)-[1,2,4]triazolo[4,3-a]pyridin-6-yl)oxy)-1,2,3,4-tetrahydronaphthalen-1-yl)urea], the IC50 in test [1] was over 5 nM; on p38 alpha, 1 to 10 nM.
The matching figures for `CN(C)CC(=O)NCc1nc(NC(=O)N[C@H]2CC[C@@H](Oc3ccc4nnc(C(C)(C)C)n4c3)c3ccccc32)cc(C(C)(C)C)n1` [Example 24, N-((4-(tert-Butyl)-6-(3-((1S,4R)-4-((3-(tert-butyl)-[1,2,4]triazolo[4,3-a]pyridin-6-yl)oxy)-1,2,3,4-tetrahydronaphthalen-1-yl)ureido)pyrimidin-2-yl)methyl)-2-(dimethylamino)acetamide]: over 5 nM and under 1 nM.
In the case of `CC(C)(C)c1cc(NC(=O)N[C@H]2CC[C@@H](Oc3ccc4nnc(C5(C)CCCC5)n4c3)c3ccccc32)nc(C(=O)NCCN2CCOCC2)n1` [Example 25, 4-(tert-Butyl)-6-(3-((1S,4R)-4-((3-(1-methylcyclopentyl)-[1,2,4]triazolo[4,3-a]pyridin-6-yl)oxy)-1,2,3,4-tetrahydronaphthalen-1-yl)ureido)-N-(2-morpholinoethyl)pyrimidine-2-carboxamide], the IC50 (in test [1]; at p38 alpha) was under 1 nM each time.
Take `CC(=O)OCc1nc(NC(=O)N[C@H]2CC[C@@H](Oc3ccc4nnc([C@]5(C)CCCN5C)n4c3)c3ccccc32)cc(C(C)(C)C)n1` [Example 26, (4-(tert-Butyl)-6-(3-((1S,4R)-4-((3-((S)-1,2-dimethylpyrrolidin-2-yl)-[1,2,4]triazolo[4,3-a]pyridin-6-yl)oxy)-1,2,3,4-tetrahydronaphthalen-1-yl)ureido)pyrimidin-2-yl)methyl acetate]: the IC50 was in the range of 1 to 5 nM in test [1] and 1 to 10 nM at p38 alpha.
Take `CN1CCC[C@@]1(C)c1nnc2ccc(O[C@@H]3CC[C@H](NC(=O)Nc4cc(C(C)(C)C)nc(CO)n4)c4ccccc43)cn12` [Example 27, 1-(6-(tert-Butyl)-2-(hydroxymethyl)pyrimidin-4-yl)-3-((1S,4R)-4-((3-((S)-1,2-dimethylpyrrolidin-2-yl)-[1,2,4]triazolo[4,3-a]pyridin-6-yl)oxy)-1,2,3,4-tetrahydronaphthalen-1-yl)urea]: the IC50 (in test [1]; on p38 alpha) was under 1 nM each time.
For the molecule `CN(C)CCNC(=O)c1nc(NC(=O)N[C@H]2CC[C@@H](Oc3ccc4nnc([C@]5(C)CCCN5C)n4c3)c3ccccc32)cc(C(C)(C)C)n1` [Example 28, 4-(tert-Butyl)-N-(2-(dimethylamino)ethyl)-6-(3-((1S,4R)-4-((3-((S)-1,2-dimethylpyrrolidin-2-yl)-[1,2,4]triazolo[4,3-a]pyridin-6-yl)oxy)-1,2,3,4-tetrahydronaphthalen-1-yl)ureido)pyrimidine-2-carboxamide], the IC50 in test [1] was 1 to 5 nM; on p38 alpha, under 1 nM.
Taken in the same sequence, the figures for `CN1CCC[C@@]1(C)c1nnc2ccc(O[C@@H]3CC[C@H](NC(=O)Nc4cc(C(C)(C)C)nc(C(=O)NCCO)n4)c4ccccc43)cn12` [Example 29, 4-(tert-Butyl)-6-(3-((1S,4R)-4-((3-((S)-1,2-dimethylpyrrolidin-2-yl)-[1,2,4]triazolo[4,3-a]pyridin-6-yl)oxy)-1,2,3,4-tetrahydronaphthalen-1-yl)ureido)-N-(2-hydroxyethyl)pyrimidine-2-carboxamide] were under 1 nM and under 1 nM.

The record behind these values is patent US10364245B2 (CHIESI FARMACEUTICI S.p.A., priority 2017, dated 2019).
